Test results as given in ChEMBL document CHEMBL1129529, “Synthesis and antiviral activity of pyranosylphosphonic acid nucleotide analogues” (J Med Chem, 1996).

Tests used:
NHDF [1] = test: Inhibitory activity against replication of HCMV in NHDF cells; Not active; format: functional, cell-based, Homo sapiens
NHDF [2] = test: Cytotoxic activity against NHDF cell growth; Not active; format: functional, cell-based, Homo sapiens
MRC5 [3] = test: Inhibitory activity against cytopathic effect of HSV-2(E 194) in MRC-5 cells; Not active; format: functional, cell-based, Homo sapiens
MRC5 [4] = test: Inhibitory activity against cytopathic effect of HSV-2(E 194) in MRC-5 cells; format: functional, cell-based; conditions: Homo sapiens
NHDF [5] = test: Inhibitory activity against replication of HCMV in NHDF cells; format: functional, cell-based; conditions: Homo sapiens
NHDF [6] = test: Cytotoxic activity against NHDF cell growth; format: functional; conditions: Homo sapiens
[7] = Selectivity index is defined as ratio between IC50(NHDF) / IC50(HCMV); format: functional

| SMILES | IC50 (NHDF [1]) | IC50 (NHDF [2]) | IC50 (MRC5 [3]) | IC50 (MRC5 [4]) | IC50 (NHDF [5]) | CC50 (NHDF [6]) | Selectivity ratio [7] |
| --- | --- | --- | --- | --- | --- | --- | --- |
| Nc1ccn([C@H]2CC=C(P(=O)(O)O)O[C@H]2CO)c(=O)n1 | Not Active | Not Active | Not Active |  |  |  |  |
| Nc1nc(O)c2ncn(C3C=CC(P(=O)(O)O)OC3CO)c2n1 (stereo not given) | Not Active | Not Active | Not Active |  |  |  |  |
| Nc1ncnc2c1ncn2[C@@H]1C=C[C@H](P(=O)(O)O)O[C@@H]1CO | Not Active | Not Active | Not Active |  |  |  |  |
| Cc1cn(C2C=CC(P(=O)(O)O)OC2C)c(=O)[nH]c1=O (stereo not given) | Not Active | Not Active | Not Active |  |  |  |  |
| Nc1nc(O)c2ncn([C@@H]3C=C[C@H](P(=O)(O)O)O[C@@H]3CO)c2n1 |  |  |  | 275 µM | > 300 µM | > 1 mM |  |
| CC1OC(P(=O)(O)O)=CCC1n1ccc(N)nc1=O (stereo not given) |  |  |  | > 400 µM | 300 µM | > 1 mM | > 3.3 |
| Cc1cn([C@@H]2C=C[C@@H](P(=O)(O)O)O[C@@H]2CO)c(=O)[nH]c1=O | Not Active | Not Active | Not Active |  |  |  |  |
| Nc1ncnc2c1ncn2[C@@H]1C=C[C@@H](P(=O)(O)O)O[C@@H]1CO |  |  |  | 300 µM | > 300 µM | > 1 mM |  |
| Cc1cn([C@@H]2C=C[C@H](P(=O)(O)O)O[C@@H]2CO)c(=O)[nH]c1=O | Not Active | Not Active | Not Active |  |  |  |  |
| Nc1nc(O)c2ncn([C@@H]3CC=C(P(=O)(O)O)O[C@@H]3CO)c2n1 | Not Active | Not Active | Not Active |  |  |  |  |
| CC1OC(P(=O)(O)O)=CCC1n1cnc2c(N)ncnc21 (stereo not given) | Not Active | Not Active | Not Active |  |  |  |  |
| Nc1ncnc2c1ncn2C1CC=C(P(=O)(O)O)OC1CO (stereo not given) |  |  |  |  | 90 µM | > 1 mM | > 11 |
| Nc1ccn([C@H]2C=C[C@@H](P(=O)(O)O)O[C@H]2CO)c(=O)n1 | Not Active | Not Active | Not Active |  |  |  |  |
| CC1OC(P(=O)(O)O)C=CC1n1ccc(N)nc1=O (stereo not given) |  |  |  | > 400 µM | 200 µM | > 1 mM | > 5 |
| Nc1ccn([C@@H]2CC=C(P(=O)(O)O)O[C@@H]2CO)c(=O)n1 |  |  |  | 90 µM | 40 µM | > 1 mM | > 25 |
| Cc1cn(C2CC=C(P(=O)(O)O)OC2CO)c(=O)[nH]c1=O (stereo not given) | Not Active | Not Active | Not Active |  |  |  |  |
| Nc1ccn(C2CCC(P(=O)(O)O)OC2CO)c(=O)n1 (stereo not given) |  |  |  |  | 80 µM | > 1 mM | > 12 |
| Nc1ccn(C[C@@H](CO)OCP(=O)(O)O)c(=O)n1 [CIDOFOVIR] |  |  |  | 10 µM | 0.5 µM | 0.2 mM | 400 |
| Cc1cn(C2CC=C(P(=O)(O)O)OC2C)c(=O)[nH]c1=O (stereo not given) | Not Active | Not Active | Not Active |  |  |  |  |
| Nc1ccn([C@@H]2C=C[C@H](P(=O)(O)O)O[C@@H]2CO)c(=O)n1 |  |  |  | 85 µM | 10 µM | > 1 mM | > 100 |
